Measured values taken from US4103011A, “Novel penicillin compounds and process for preparation thereof” (priority 1976, dated 1978).
Counter-ions that a name gives are not always drawn. Like-named read-outs stand apart in the source and are kept apart here.

What was measured:
[1] = tested on: bacteria (systemic infection); experiment: In vivo efficacy against systemic infection, overall conclusions; parameters: species or system male mice (ddY); conditions: Table II
Experimental: The contents in the vials (No. A and No. C) prepared in Example 17 were each dissolved in deionized water, and injections having various concentrations were prepared.
Compounds A, B, F, G, H and M were dissolved in deionized water. Compounds C, D, E and J were dissolved in an aqueous solution of sodium carbonate (pH 8-9) to prepare injections of various concentrations.
Each of the injections was administered to mice under the conditions described below, and the median effective doses (ED50) obtained are shown in Table II.

[2] = tested on: Pseudomonas aeruginosa No. 12; experiment: In vivo efficacy against systemic infection; parameters: species or system male mice (ddY); conditions: NO.12, in Mus musculus, twice, about 5 minutes and 6 hours after infection, read-out: ED50 (median effective dose)
Procedure, shortened: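 Male ddY mice (about 20 g) infected intraperitoneally with a Pseudomonas aeruginosa No. 12 suspension. Compounds in deionized water were given twice, about 5 minutes and 6 hours after infection. Effective dose calculated by the Behrens-Kaerber method.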

[3] = tested on: Staphylococcus aureus No. 50774; experiment: In vivo efficacy against systemic infection; parameters: species or system male mice (ddY); conditions: NO.50774, in Mus musculus, 336 h, sc, twice, about 5 minutes and 6 hours after infection, read-out: ED50 (median effective dose)
Procedure, shortened: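 Male ddY mice (~20 g) infected intravenously with 50 to 100 LD50 (about 5 × 10^8 cells/mouse) of S. aureus No. 50774 in saline. Compounds in water or aqueous sodium carbonate (pH 8-9) dosed twice, about 5 minutes and 6 hours post-infection; ED50 (mg/kg) by Behrens-Kaerber method.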

in vivo = conditions: mouse
mice = conditions: mice
[4] = tested on: Pseudomonas aeruginosa No.12; experiment: In vitro antibacterial activity (MIC); type: cell-based; conditions: Pseudomonas aeruginosa, NO.12, read-out: minimum inhibitory concentration (MIC)
From the text: (§1) In vitro antibacterial activity against 20 strains of bacteria
(§2) The numerals in the table show minimum inhibitory concentrations (MIC)

[5] = tested on: Salmonella typhimurium S-9; experiment: In vitro antibacterial activity (MIC); type: cell-based; conditions: Salmonella enterica; Salmonella typhimurium S-9; read-out: minimum inhibitory concentration (MIC)
From the text: as §1, §2

Proteus rettgeri P-2503 = experiment: In vitro antibacterial activity (MIC); type: cell-based; conditions: Providencia rettgeri, P2503, read-out: minimum inhibitory concentration (MIC)
From the text: as §1, §2

Shigella flexneri 2a = experiment: In vitro antibacterial activity (MIC); type: cell-based; conditions: read-out: minimum inhibitory concentration (MIC)
From the text: as §1, §2

[6] = tested on: Shigella flexneri 4a P-330; experiment: In vitro antibacterial activity (MIC); type: cell-based; conditions: 4AP330, read-out: minimum inhibitory concentration (MIC)
From the text: as §1, §2

[7] = tested on: Enterobacter cloacae P-2540; experiment: In vitro antibacterial activity (MIC); type: cell-based; conditions: Enterobacter cloacae, P2540, read-out: minimum inhibitory concentration (MIC)
From the text: as §1, §2

[8] = tested on: Salmonella enteritidis No. 1891; experiment: In vitro antibacterial activity (MIC); type: cell-based; conditions: Salmonella enterica; Salmonella enteritidis No. 1891; read-out: minimum inhibitory concentration (MIC)
From the text: as §1, §2

[9] = tested on: Streptococcus pyogenes 65A; experiment: In vitro antibacterial activity (MIC); type: cell-based; conditions: Streptococcus pyogenes 65A; read-out: minimum inhibitory concentration (MIC)
From the text: as §1, §2

[10] = tested on: Klebsiella pneumoniae No. 13; experiment: In vitro antibacterial activity (MIC); type: cell-based; conditions: Klebsiella pneumoniae No. 13; read-out: minimum inhibitory concentration (MIC)
From the text: as §1, §2

[11] = tested on: Streptococcus faecalis P-2473; experiment: In vitro antibacterial activity (MIC); type: cell-based; conditions: Enterococcus faecalis, P2473, read-out: minimum inhibitory concentration (MIC)
From the text: as §1, §2

[12] = tested on: Staphylococcus aureus No. 50774; experiment: In vitro antibacterial activity (MIC); type: cell-based; conditions: Staphylococcus aureus No. 50774; read-out: minimum inhibitory concentration (MIC)
From the text: as §1, §2

[13] = tested on: Escherichia coli NIHJ JC-2; experiment: In vitro antibacterial activity (MIC); type: cell-based; conditions: Escherichia coli, NIHJJC2, read-out: minimum inhibitory concentration (MIC)
From the text: as §1, §2

Escherichia coli P-5101 [14] = experiment: In vitro antibacterial activity (MIC); type: cell-based; conditions: Escherichia coli, P5101, read-out: minimum inhibitory concentration (MIC)
From the text: as §1, §2

[15] = tested on: Staphylococcus aureus 209P JC-1; experiment: In vitro antibacterial activity (MIC); type: cell-based; conditions: Staphylococcus aureus 209P JC-1; read-out: minimum inhibitory concentration (MIC)
From the text: as §1, §2

Escherichia coli P-140a = experiment: In vitro antibacterial activity (MIC); type: cell-based
From the text: as §1, §2

Proteus mirabilis P-2381 = experiment: In vitro antibacterial activity (MIC); type: cell-based; conditions: P2381; Proteus mirabilis P-2381; read-out: minimum inhibitory concentration (MIC)
From the text: as §1, §2

Proteus morganii Kono = experiment: In vitro antibacterial activity (MIC); type: cell-based; conditions: Morganella morganii; Proteus morganii Kono; read-out: minimum inhibitory concentration (MIC)
From the text: as §1, §2

[16] = tested on: Corynebacterium pyogenes C-21; experiment: In vitro antibacterial activity (MIC); type: cell-based; conditions: Rhodococcus (subgen. Prescottella) equi, C21; Corynebacterium pyogenes C-21; read-out: minimum inhibitory concentration (MIC)
From the text: as §1, §2

[17] = tested on: Pseudomonas aeruginosa Tsuchijima; experiment: In vitro antibacterial activity (MIC); type: cell-based; conditions: Pseudomonas aeruginosa, read-out: minimum inhibitory concentration (MIC)
From the text: as §1, §2

[18] = tested on: Serratia mercescens IFO 3736; experiment: In vitro antibacterial activity (MIC); type: cell-based; conditions: Serratia, IFO3736, read-out: minimum inhibitory concentration (MIC)
From the text: as §1, §2

Escherichia coli P-5101 [19] = experiment: In vivo efficacy against systemic infection; parameters: species or system male mice (ddY); conditions: P5101, in Mus musculus, 168 h, twice, about 5 minutes and 6 hours after infection, read-out: ED50 (median effective dose)
Procedure, shortened: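 Male ddY mice of about 20g were infected intraperitoneally with E. coli P-5101 suspended in tryptosoy broth. Compounds dissolved in deionized water were given twice, about 5 minutes and 6 hours after infection. Effective dose was calculated by the Behrens-Kaerber method.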

In the case of `CCN1CCN(C(=O)N[C@@H](C(=O)N[C@@H]2C(=O)N3[C@@H]2SC(C)(C)[C@@H]3C(=O)O)c2ccccc2)C(=O)C1=O` [Compound H, D-α-(4-Ethyl-2,3-dioxopiperazine-1-carboxamido)-benzylpenicillin sodium salt], the “antibacterial activity in vivo as fraction of that of the penicillin compounds of this invention” value [1] is reported as “one-twentieth to one-seventieth”, the ED50 ([2]; iv) is reported as over 100 mg/kg and the ED50 ([2]; sc) is reported as 141 mg/kg. The ED50 [3] was 8.8 mg/kg, the LD50 at 168 h (in vivo; iv) was over 4000 mg/kg and the LD50 at 168 h (in vivo; sc) was over 6000 mg/kg. For the same molecule, the selectivity ratio (in vivo; sc) was over 42, the “LD50 compared with compounds 1 and 2 (in words)” value (mice) was “almost the same” and the MIC [4] was 3.13 µg/mL. The MIC [5] was 0.39 µg/mL, the MIC (Proteus rettgeri P-2503) was 1.56 µg/mL and the MIC (Shigella flexneri 2a) was 1.56 µg/mL. It also gave an MIC [6] of 3.13 µg/mL, an MIC [7] of 3.13 µg/mL and an MIC [8] of 0.39 µg/mL. The MIC [9] was 0.025 µg/mL, the MIC [10] was 6.25 µg/mL and the MIC [11] was 3.13 µg/mL. For the same molecule, the MIC [12] was 0.78 µg/mL, the MIC [13] was 3.13 µg/mL and the MIC (Escherichia coli P-5101 [14]) was 1.56 µg/mL. For the same molecule, the MIC [15] was 0.39 µg/mL, the “minimum inhibitory concentration (MIC)” value (Escherichia coli P-140a) was 12.5 µg/mL and the MIC (Proteus mirabilis P-2381) was 0.78 µg/mL. It also gave an MIC (Proteus morganii Kono) of 0.78 µg/mL, an MIC [16] of 6.25 µg/mL and an MIC [17] of 1.56 µg/mL. The MIC [18] was 0.78 µg/mL, the ED50 (Escherichia coli P-5101 [19]; iv) was 43.3 mg/kg and the ED50 (Escherichia coli P-5101 [19]; sc) was 26.3 mg/kg.
